Measured values taken from the supplement of paper PMC5752671.
Counter-ions that a name gives are not always drawn.

Experiments:
Assay in all cases: IC50 (cell viability) (log10 M)
Conditions in all cases: 4 days
[1] = system: MV4.11
Summary of the method: (§1)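 The IC50 entries come from fitted dose-response curves. Each value is the concentration in log10 M where a fitted four-parameter curve reaches 50% viability, and the highest tested concentration is entered when that level is not reached. Fourteen leukemia cell lines on extracellular-matrix-coated 384-well plates received drugs in duplicate at eight concentrations within 10^–12–10^–4 M, and viability was read with CellTiter-Glo after 4 days.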

[2] = system: KG1
Summary of the method: as §1

[3] = system: U937
Summary of the method: as §1

[4] = system: SKM1
Summary of the method: as §1

[5] = system: HL60
Summary of the method: as §1

[6] = system: PL-21
Summary of the method: as §1

[7] = system: MOLM/16
Summary of the method: as §1

[8] = system: NB4
Summary of the method: as §1

[9] = system: OCI-AML2
Summary of the method: as §1

[10] = system: EOL-1
Summary of the method: as §1

Row | SMILES | IC50 (log10 M) [1] | IC50 (log10 M) [2] | IC50 (log10 M) [3] | IC50 (log10 M) [4] | IC50 (log10 M) [5] | IC50 (log10 M) [6] | IC50 (log10 M) [7] | IC50 (log10 M) [8] | IC50 (log10 M) [9] | IC50 (log10 M) [10]
1 | CC(=O)Nc1cccc(-n2c(=O)n(C3CC3)c(=O)c3c(Nc4ccc(I)cc4F)n(C)c(=O)c(C)c32)c1 | -6.67 | -7.87 | > -5 | < -8.34 | < -8.34 | -7.81 | > -5 | -7.5 | < -8.34 | 
2 | CN(C)CCCn1cc(C2=C(c3c[nH]c4ccccc34)C(=O)NC2=O)c2ccccc21 | -6.66 | > -5 | > -5 | -5.35 | > -5 | -5.04 | -5.55 | > -5 | -5.41 | -6.69
3 | CN1CCC(COc2cnc(-c3cccc(Cn4nc(-c5cccc(C#N)c5)ccc4=O)c3)nc2)CC1 | > -5 | > -5 | > -5 | > -5 | > -5 | > -5 | > -5 | > -5 | > -5 | > -5
4 | COc1cc(OC)c(/C=C/S(=O)(=O)Cc2ccc(OC)c(NCC(=O)O)c2)c(OC)c1 | -7.3 | -7 | -7.57 | -7.05 | -6.93 | -7.41 | -7.73 | -7.28 | -7.47 | -7.51
5 | C[C@@]1(C(=O)Nc2ccc(F)nc2)CCCN1c1nc(Nc2cc(C3CC3)n[nH]2)c2cccn2n1 | -6.27 | -6.35 | -6.61 | -6.18 | -7.3 | -7.16 | -6.78 | -6.61 | -6.15 | -6.59
6 | Cc1ccc(C(=O)Nc2ccc(CN3CCN(C)CC3)c(C(F)(F)F)c2)cc1C#Cc1cnc2cccnn12 | -8.82 | -7.98 | -6.07 | -6.04 | -6.17 | -6.11 | -6.82 | -6.12 | -6.41 | < -9.34
7 | Cc1ccccc1-n1c(Cn2cnc3c(N)ncnc32)nc2cccc(C)c2c1=O | > -5 | > -5 | > -5 | > -5 | > -5 | > -5 | > -5 | > -5 | > -5 | > -5
8 | N#CC[C@H](C1CCCC1)n1cc(-c2ncnc3[nH]ccc23)cn1 | -5.01 | -5.38 | -5.57 | > -5 | > -5 | > -5 | -5.35 | > -5 | > -5 | -5.11
9 | NC(=O)[C@@H](CCC(F)(F)F)N(Cc1ccc(-c2ncon2)cc1F)S(=O)(=O)c1ccc(Cl)cc1 | > -5 | > -5 | > -5 | > -5 | > -5 | > -5 | > -5 | > -5 | > -5 | > -5
10 | CN(C)CC[C@H](CSc1ccccc1)Nc1ccc(S(=O)(=O)NC(=O)c2ccc(N3CCN(Cc4ccccc4-c4ccc(Cl)cc4)CC3)cc2)cc1[N+](=O)[O-] [ABT-737] | -7.76 | -6.4 | -6.16 | -6.03 | -6.72 | -6 | -6.39 | > -6 | -6.99 | -7.89
11 | C[C@]1(c2nc3c(C(N)=O)cccc3[nH]2)CCCN1 [ABT-888] | > -5 | > -5 | > -5 | > -5 | > -5 | > -5 | > -5 | > -5 | > -5 | > -5
12 | CC(C)(C)c1cc(NC(=O)Nc2ccc(-c3cn4c(n3)sc3cc(OCCN5CCOCC5)ccc34)cc2)no1 [AC-220] | < -9.34 | > -6 | -6.37 | > -6 | -6.01 |  | > -6 | > -6 | -6 | < -9.34
13 | O=C1NC(=O)[C@@H](c2cn3c4c(cccc24)CCC3)[C@@H]1c1c[nH]c2ccccc12 [ARQ-197] | -6.32 | -6.48 | -7.23 | -6.24 | -6.37 | -6.31 | -7.26 | -6.94 | -6.23 | -6.74
14 | CCN(CC)CCCC(C)Nc1c2ccc(Cl)cc2nc2ccc(OC)cc12 (stereo unspecified) [Acrichine] | -5.79 | -5.44 | -5.48 | -5.47 | -5.35 | -5.46 | -5.52 | -5.46 | -5.69 | -5.82
15 | Nc1cc(C(F)(F)F)c(-c2cc(N3CCOCC3)nc(N3CCOCC3)n2)cn1 [BKM-120] | -5.78 | -5.83 | -6.45 | -5.8 | -5.74 | -5.86 | -6.53 | -5.9 | -5.74 | -6.36
16 | NC(=O)c1ccc2nc(-c3ccc(Oc4ccc(Cl)cc4)cc3)[nH]c2c1 [BML 277] | > -5 | > -5 | > -5 | > -5 | > -5 | > -5 | -5.35 | > -5 | > -5 | -5.36
17 | NC(=O)c1ccc(I)c([N+](=O)[O-])c1 [BSI-201] | > -5 | > -5 | > -5 | > -5 | > -5 | > -5 | > -5 | > -5 | > -5 | > -5
18 | CC(C)C[C@H](NC(=O)[C@H](Cc1ccccc1)NC(=O)c1cnccn1)B(O)O [Bortezomib] | -8.1 | -8.25 | -8.32 | -8.6 | -8.05 | -8.04 | -8.07 | -8.38 | -8.06 | -8.29
19 | CS(=O)(=O)OCCCCOS(C)(=O)=O [Busulfan] | -5.24 | > -5 | > -5 | > -5 | > -5 | > -5 | > -5 | > -5 | > -5 | -5.23
20 | CC[C@H](Nc1ncnc2[nH]cnc12)c1nc2cccc(F)c2c(=O)n1-c1ccccc1 [CAL-101] | -5.3 | > -5 | > -5 | > -5 | > -5 | > -5 | -5.22 | > -5 | > -5 | -5.16

Row | SMILES | IC50 (log10 M) [1] | IC50 (log10 M) [2] | IC50 (log10 M) [3] | IC50 (log10 M) [4] | IC50 (log10 M) [5] | IC50 (log10 M) [6] | IC50 (log10 M) [7] | IC50 (log10 M) [8] | IC50 (log10 M) [9] | IC50 (log10 M) [10]
21 | O=C(O)C1(C(=O)O)CCC1.[NH2-].[NH2-].[Pt+2] [Carboplatin] | -5.34 | > -5 | > -5 | > -5 | > -5 | > -5 | > -5 | > -5 | -5.37 | -5.16
22 | N.N.[Cl][Pt][Cl] [Cisplatin] | > -5 | > -5 | > -5 | > -5 | > -5 | > -5 | > -5 | > -5 | > -5 | > -5
23 | Nc1nc(Cl)nc2c1ncn2[C@H]1C[C@H](O)[C@@H](CO)O1 [Cladribine] | < -8.48 | -6.79 | -8.47 | -6.97 | -7.09 | -8.25 | -7.36 | -7.52 | < -8.48 | < -8.48
24 | Nc1nc(Cl)nc2c1ncn2[C@@H]1O[C@H](CO)[C@@H](O)[C@@H]1F [Clofarabine] | -6.57 | -6.93 | -7.66 | -6.7 | -6.93 | -7.51 | -6.78 | -6.74 | -7.05 | -7.52
25 | C[C@@H](Oc1cc(-c2cnn(C3CCNCC3)c2)cnc1N)c1c(Cl)ccc(F)c1Cl [Crizotinib] | -5.68 | -5.49 | -5.61 | -5.49 | -5.49 | -5.59 | -5.86 | -5.61 | -5.5 | -5.82
26 | Nc1ccn([C@@H]2O[C@H](CO)[C@@H](O)[C@@H]2O)c(=O)n1 [Cytarabine HCl] | -7.21 | -7.29 | < -7.34 | -6.81 | -7.08 | < -7.34 | -7.19 | < -7.34 | < -7.34 | < -7.34
27 | Cc1nc(Nc2ncc(C(=O)Nc3c(C)cccc3Cl)s2)cc(N2CCN(CCO)CC2)n1 [Dasatinib] | -5.37 | -5.39 | > -5 | > -5 | > -5 | -5.46 | -5.46 | > -5 | -5.37 | -7.46
28 | COc1cccc2c1C(=O)c1c(O)c3c(c(O)c1C2=O)C[C@@](O)(C(C)=O)C[C@@H]3O[C@H]1C[C@H](N)[C@H](O)[C@H](C)O1 [Daunorubicin HCl] | -8.28 | -6.76 | -7 | -7.2 | -7.03 | -6.92 | -6.96 | -7.23 | -7.03 | -8.26
29 | Nc1ncn([C@H]2C[C@H](O)[C@@H](CO)O2)c(=O)n1 [Decitabine] | -5.06 | -6.39 | -6.97 | -5.53 | -5.1 | -6.43 | < -8.34 | -8.3 | -7.26 | < -8.34
30 | COc1cc2nccc(Oc3ccc(NC(=O)NC4CC4)c(Cl)c3)c2cc1C(N)=O [E7080] | -5.91 |  | > -5 | > -5 | > -5 | > -5 | > -5 | > -5 | > -5 | -7.74
31 | Cn1cc(C2=C(c3cn(C4CCN(Cc5ccccn5)CC4)c4ccccc34)C(=O)NC2=O)c2ccccc21 [Enzastaurin] | -5.11 | > -5 | > -5 | > -5 | > -5 | > -5 | > -5 | > -5 | > -5 | > -5
32 | C#Cc1cccc(Nc2ncnc3cc(OCCOC)c(OCCOC)cc23)c1 [Erlotinib HCl] | -5.42 | -5.31 | -5.02 | -5.01 | > -5 | > -5 | -5.69 | > -5 | > -5 | -5.67
33 | CCc1cccc2c3c([nH]c12)C(CC)(CC(=O)O)OCC3 (stereo unspecified) [Etodolac] | > -5 | > -5 | > -5 | > -5 | > -5 | > -5 | > -5 | > -5 | > -5 | > -5
34 | COc1cc([C@@H]2c3cc4c(cc3[C@@H](O[C@@H]3O[C@@H]5CO[C@@H](C)O[C@H]5[C@H](O)[C@H]3O)[C@H]3COC(=O)[C@H]23)OCO4)cc(OC)c1O [Etoposide] | -8.2 | -5.49 | -7.62 | -7.22 | -5.78 | -5.67 | -6.42 | -7.71 |  | -8.33
35 | CO[C@H]1C[C@@H]2CC[C@@H](C)[C@@](O)(O2)C(=O)C(=O)N2CCCC[C@H]2C(=O)O[C@H]([C@H](C)C[C@@H]2CC[C@@H](OCCO)[C@H](OC)C2)CC(=O)[C@H](C)/C=C(\C)[C@@H](O)[C@@H](OC)C(=O)[C@H](C)C[C@H](C)/C=C/C=C/C=C/1C [Everolimus] | -6 | > -5 | -7.7 | -5.4 | > -5 | -5.1 | -5.83 | > -5 | -5.02 | -8.2
36 | CSCC[C@H](NC(=O)c1ccc(NC[C@@H](N)CS)cc1-c1ccccc1)C(=O)O [FTI-276] | > -5 | > -5 | > -5 | > -5 | > -5 | > -5 | > -5 | > -5 | > -5 | > -5
37 | CN1CC[C@H](c2c(O)cc(O)c3c(=O)cc(-c4ccccc4Cl)oc23)[C@H](O)C1 [Flavopiridol] | -7.35 |  | -7.41 |  | -7.12 | -7.47 | -7.4 | -6.96 | -7.46 | -7.2
38 | CS(=O)(=O)N1CCN(Cc2cc3nc(-c4cccc5[nH]ncc45)nc(N4CCOCC4)c3s2)CC1 [GDC-0941] | -6.15 | -5.35 | -6.26 | -6.37 | -6.46 | -6.77 |  | -5.49 | -5.68 | -6.95
39 | CC(C)C[C@@H](C=O)NC(=O)[C@H](CC(C)C)NC(=O)[C@H](CC(C)C)NC(=O)OCc1ccccc1 [MG132] | -7.18 | -6.61 | -6.99 | -6.97 | -6.43 | -6.3 | -6.99 | -7.22 |  | -7.15
40 | NC1(c2ccc(-c3nc4ccn5c(=O)[nH]nc5c4cc3-c3ccccc3)cc2)CCC1 [MK2206] | -5.66 |  | -7.93 | -5.76 | -5.37 | -6.09 | -6.21 | -5.23 | -5.45 | -6.28
